Patent publication US9725412B2, “Polymorphic forms of perindopril (L)-arginine and process for the preparation thereof” (Mylan Laboratories Limited, priority 2008, dated 2017)

What was measured:
[1] = Physical stability on drying and at humidity (RH >90%), by PXRD and Karl-Fisher; assay type: physicochemical
Procedure: The physical stability of the amorphous form, Form γ and literature Form α of Perindopril (L)-Arginine was determined by storing approximately 3.0 g of the sample a) at 50° C., b) at 70° C., c) at 100° C. and d) at 90% Relative Humidity (RH). […]

[2] = Transformation kinetics: solvent-mediated polymorph transformation (slurry in solvents, PXRD); assay type: physicochemical; conditions: for Result (polymorphic form by PXRD after slurry): stirred 12 hours; for Form conversion: stirred in toluene or acetonitrile for more than 15 hrs at room temperature; for Form conversion or dissociation: slurry in heptane
Procedure: Solvent-mediated polymorph transformations are an effective method to measure the physical stability for both metastable and thermodynamically stable polymorphs. This study is carried out by slurring 1 g of Form γ, amorphous and literature Form α of Perindopril (L)-Arginine salt in different solvents at 25 to 30° C. for several hours. The solid samples are then characterized by PXRD (example 10, Table 6).
1 g of Perindopril (L)-Arginine salt is suspended in appropriate solvents at different temperature and stirred for 12 hours to afford form γ of Perindopril (L)-Arginine.

[3] = Solid state stability at accelerated stress conditions (40° C./75% relative humidity); assay type: physicochemical; conditions: 40° C./75% RH
Procedure: The present invention is to provide Perindopril (L)-Arginine (γ) form having the degree of crystallinity under 60%, which has enhanced stability to heat and humidity. According to the present invention, the obtained Perindopril (L)-Arginine (γ) form is subjected to accelerated stability at 40° C. and relative humidity (RH) 75%.
The samples were tested by PXRD, Karl-Fisher titrator and HPLC for final purity and degradation products.

[4] = Hygroscopic studies at different relative humidities; assay type: physicochemical; conditions: stored in different relative humidities for 1 to 3 months
[5] = tablets, temperate-climate countries; cited from earlier work

## CCC[C@H](N[C@@H](C)C(=O)N1[C@H](C(=O)O)C[C@@H]2CCCC[C@@H]21)C(=O)OCC.N=C(N)NCCC[C@H](N)C(=O)O [Amorphous, Perindopril (L)-Arginine]
[1]; Drying at 25° C., 3 hrs
  Results (polymorphic form by PXRD): Form γ
[1]; Humidity (RH >90%), 3 hrs
  Results (polymorphic form by PXRD): Form γ
[1]; Humidity (RH >90%), 3 hrs, listed as amorphous Perindopril Arginine salt
  Results (polymorphic form by PXRD): polymorphic form γ
[1]; in humidity
  Change in form: converted to Form γ
[2]; ACN, volume 10, 25-30 ° C.
  Result (polymorphic form by PXRD after slurry): Form γ
[2]
  Form conversion: converted to form γ

## CCC[C@H](N[C@@H](C)C(=O)N1[C@H](C(=O)O)C[C@@H]2CCCC[C@@H]21)C(=O)OCC.N=C(N)NCCC[C@H](N)C(=O)O [Form α, Perindopril (L)-Arginine]
[1]; Drying at 70° C., 3 days
  Results (polymorphic form by PXRD): Form α
[1]; Drying at 100° C., 7 days
  Results (polymorphic form by PXRD): Form α
[1]; Humidity (RH >90%), 15 hrs
  Results (polymorphic form by PXRD): Form γ
[1]; in humidity
  Change in form: converted to Form γ
[2]; ACN, volume 5, 25-30 ° C.
  Result (polymorphic form by PXRD after slurry): Form γ
[2]; ACN, volume 5, 70-80 ° C.
  Result (polymorphic form by PXRD after slurry): Form γ
[2]; Toluene, volume 5, 25-30 ° C.
  Result (polymorphic form by PXRD after slurry): Form γ
[2]; n-heptane, volume 5, 25-30 ° C.
  Result (polymorphic form by PXRD after slurry): Form α
[2]
  Form conversion or dissociation: No discernible form conversion or dissociation
  Form conversion: converted to form γ

## CCC[C@H](N[C@@H](C)C(=O)N1[C@H](C(=O)O)C[C@@H]2CCCC[C@@H]21)C(=O)OCC.N=C(N)NCCC[C@H](N)C(=O)O [Form γ, Perindopril (L)-Arginine]
[3]; After 1 month
  PXRD: Same as initial
  Purity (%) (HPLC): 99.2%
  m/c (%) (moisture content, Karl-Fisher): 4.4%
[3]; After 2 months
  PXRD: Same as initial
  Purity (%) (HPLC): 99.1%
  m/c (%) (moisture content, Karl-Fisher): 5.0%
[3]; After 15 days
  PXRD: Same as initial
  Purity (%) (HPLC): 99.2%
  m/c (%) (moisture content, Karl-Fisher): 4.2%
[3]; Initial
  PXRD: Form γ
  Purity (%) (HPLC): 99.1%
  m/c (%) (moisture content, Karl-Fisher): 3.8%
[3]; accelerated stability
  Chemical and physical stability: chemically and physically very stable
  Degradation in HPLC: no degradation
  Increase in moisture content: no substantial increase
[1]; Drying at 70° C., 3 days
  Results (polymorphic form by PXRD): Form γ
[1]; Drying at 100° C., 7 days
  Results (polymorphic form by PXRD): Form γ
[1]; Humidity (RH >90%), 15 hrs
  Results (polymorphic form by PXRD): Form γ
[1]; both drying and humid conditions
  Change in form: no change in form
[2]; ACN, volume 10, 80 ° C.
  Result (polymorphic form by PXRD after slurry): Form v
[2]; Toluene, volume 10, 110 ° C.
  Result (polymorphic form by PXRD after slurry): Form γ
[2]; conclusion from stability and slurry observations
  Relative thermodynamic stability: thermodynamically more stable than Perindopril (L)-Arginine amorphous and form α
[2]; n-heptane, volume 10, 60-80 ° C.
  Result (polymorphic form by PXRD after slurry): Form γ
[2]
  Form conversion or dissociation: No discernible form conversion or dissociation
[4]
  Increase in moisture content: no substantial increase in moisture content

## CC(C)(C)N.CCC[C@H](N[C@@H](C)C(=O)N1[C@H](C(=O)O)C[C@@H]2CCCC[C@@H]21)C(=O)OCC [Perindopril tert-butylamine salt]
[5]
  Shelf-life: ≤ 2 years
